# In patent US5792635A, “Method of inhibiting the sodium/proton exchanger NHE3 and method of inhibiting growth by administering squalamine” (priority 1995, dated 1998):
# Entries after “also recorded” stand apart in the source; their conditions may differ.
# Tests used:
# [1] = test system: vitelline capillaries of 3- to 5-day chick embryo; assay: Chick embryo vitelline capillary regression assay; assay type: in vivo
# In short: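 Compounds applied to 3- to 5-day chick embryos in 0.1 ml of 15% Ficol 400 in PBS. Regression of vitelline capillaries, seen as pinching-off of capillary loops into enclosed sacs, was scored visually after 60 minutes.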
# B16 melanoma [2] = assay: Suppression of growth of B16 melanoma in C57B mice; assay type: in vivo, mouse
# Method: The growth of B16 melanoma in C57B mice is dependent upon neovascularization.
# Using the growth of B16 melanoma cells in C57B mice, a recognized model for the evaluation of inhibitors of angiogenesis on the growth of cancers, the effects of subcutaneous, intraperitoneal and oral administration of squalamine were evaluated.
# rabbit NHE3 = rabbit NHE3 (Oryctolagus cuniculus, UniProt P26432); conditions: 5 μg/ml
# rabbit NHE3, sequence (P26432 30-832): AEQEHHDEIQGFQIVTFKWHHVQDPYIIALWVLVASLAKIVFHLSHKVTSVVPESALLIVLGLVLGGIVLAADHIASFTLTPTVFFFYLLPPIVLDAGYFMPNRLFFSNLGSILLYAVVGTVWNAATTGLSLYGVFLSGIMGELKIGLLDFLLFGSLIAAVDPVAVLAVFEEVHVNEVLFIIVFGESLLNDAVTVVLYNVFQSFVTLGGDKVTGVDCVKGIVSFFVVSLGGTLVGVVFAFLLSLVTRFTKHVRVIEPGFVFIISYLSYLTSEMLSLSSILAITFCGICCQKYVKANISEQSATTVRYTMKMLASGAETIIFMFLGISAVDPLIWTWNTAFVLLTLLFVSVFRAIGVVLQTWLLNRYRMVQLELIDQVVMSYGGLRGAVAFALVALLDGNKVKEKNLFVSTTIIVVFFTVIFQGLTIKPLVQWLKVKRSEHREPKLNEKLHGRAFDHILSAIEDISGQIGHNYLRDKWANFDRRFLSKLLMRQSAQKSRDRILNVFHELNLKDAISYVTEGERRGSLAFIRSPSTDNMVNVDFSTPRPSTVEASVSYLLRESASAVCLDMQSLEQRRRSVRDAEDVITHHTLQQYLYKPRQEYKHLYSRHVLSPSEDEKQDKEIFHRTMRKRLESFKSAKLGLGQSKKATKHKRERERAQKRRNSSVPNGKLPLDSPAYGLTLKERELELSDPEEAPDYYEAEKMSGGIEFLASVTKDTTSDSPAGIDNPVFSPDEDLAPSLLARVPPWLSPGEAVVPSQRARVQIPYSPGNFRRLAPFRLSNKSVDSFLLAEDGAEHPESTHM
# Method: Internal pH was measured either following acid loading or in the absence of an acid-loading challenge, with the results shown in FIGS. 1A and 1B.
# Specifically, PS120 fibroblasts transfected with rabbit NHE3 were grown in supplemented Dulbecco's-modified Eagle's medium as described by Levine et al., J. Biol. Chem. 268, 1993, 25527-25535. […] For cells not acid-preloaded, the actual internal pH value was monitored as a function of time following addition of squalamine, with the results depicted in FIG. 1B.
# PS120 fibroblasts transfected with rabbit NHE3 were grown and acid preloaded by exposure to 40 mM NH4 Cl as described above in conjunction with FIGS. 1A and 1B. Internal cellular pH changes expressed as the rate of pH recovery as a function of restored extracellular sodium ion concentration following exposure to 10 μg/ml of the compound were assayed with the fluorescent dye BCECF-AM as described above.
# [3] = test system: human umbilical venous endothelial cells; assay: LPS-/TNF-α-induced neutrophil adherence; assay type: cell-based; conditions: 10 μg, 1.0 μg, or 0.1 μg; three different subjects
# Text: Methods 109, 1988, 175-184.
# [4] = test system: chick chorioallantoic membrane; assay: Chorioallantoic membrane (CAM) model, inhibition of capillary growth; assay type: in vivo
# Text: The growing capillaries within the chorioallantoic membrane model (CAM model) have been used as a system in which to evaluate the effect of agents on their potential to inhibit new vessel growth. Neovascularization occurs most aggressively over the first week of embryonic development. Thereafter capillary growth is characterized by principally "elongation" rather than "de novo" formation.
# In the standard assay, agents are applied locally to a region of the embryo over which neovascularization will occur. Agents are assessed by their ability to inhibit this process, as evaluated by visual examination about 7 days after application. […] The assay utilized is described in detail in Auerbach et al., Pharm. Ther. 51, 1991, 1-11.
# [5] = test system: human coronary artery smooth muscle; assay: Proliferation of human coronary artery smooth muscle in vitro; assay type: cell-based; conditions: FIG. 15
# Text: Aminosterols of the invention may also have utility in inhibiting the growth factor mediated proliferation of smooth muscle within the artery. Following coronary angioplasty, reocclusion commonly occurs, secondary to reparative proliferation of the vascular smooth muscle within the wall of the surgically manipulated blood vessel. This process generally takes place over the course of 7-10 days. To evaluate whether an agent could prevent the growth factor mediated proliferation of smooth muscle within the artery, compound 1436 was evaluated in vitro for its effect on the proliferation of human coronary artery smooth muscle. Results for compound 1436 are shown in FIG. 13, and those for squalamine are shown in FIG. 14, with FIG. 15 being a composite logarithmic plot.
# Xenopus tadpoles = assay: Tadpole assay; conditions: 10 μg/ml
# rabbit NHE1 = assay: Inhibition of NHE1 in PS120 fibroblasts transfected with rabbit NHE1, internal pH by BCECF-AM; assay type: cell-based; conditions: 5 μg/ml; acid-preloaded; FIG. 2A
# Method: (§1) PS120 fibroblasts transfected with rabbit or human NHE1 were grown as described above.
# melanoma 1205Lu = assay: Suppression of growth of human melanoma 1205Lu in RAG-1 mice; assay type: in vivo, mouse (human tumor)
# Text: As apparent from FIG. 5, melanoma 1205Lu develops aggressively in RAG-1 mice after implantation.
# human NHE1 = assay: Inhibition of NHE1 in PS120 fibroblasts transfected with human NHE1, internal pH by BCECF-AM; assay type: cell-based; conditions: 5 μg/ml; acid-preloaded; FIG. 2B
# Method: as §1
# [6] = test system: bacteria, fungi and protozoa; conditions: in words; cited from earlier work
# human T-cells = assay: Inhibition of PHA-stimulated human lymphocytes; assay type: cell-based; conditions: 10 μg/ml
# Text: Results are tabulated below.
# B16 melanoma [7] = assay: Synergistic inhibition of tumor growth, B16 melanoma in mice; assay type: in vivo, mouse; conditions: squalamine 15 mg/kg/day; compound 1436 tolerable schedule
# Method: Based on the idea that tumor growth involves both the clonal expansion of a malignant cell along with the development of a supporting vascular supply, a combination of compound 1436 with squalamine was tested to determine whether it would achieve a synergistic effect on solid tumor growth. This concept was evaluated in the B16 melanoma model.
# Animals were implanted with B16 melanoma followed by treatment with compound 1436 or 1256 administered in a combined schedule or separately. […] Thus, a combination of these two compounds achieves a therapeutic benefit in tumors dependent on neovascularization that may prevent metastatic spread.
# B16 = assay: Cytostatic activity against B16 in culture; assay type: cell-based, murine; conditions: except at very high concentrations
compound,measurement,setting,value
CC(C)[C@@H](CC[C@@H](C)[C@H]1CC[C@H]2[C@@H]3[C@H](O)C[C@H]4C[C@@H](NCCCNCCCCN)CC[C@]4(C)[C@H]3CC[C@]12C)OS(=O)(=O)O [Squalamine],effect on vitelline capillaries,[1]; 3- to 5-day chick embryos,disrupt vitelline capillaries
same,lag period before constriction between capillary and secondary vessels,[1]; 3-day chick embryo,around 15 minutes
same,activity in vitelline capillary regression assay,[1]; Table 5,especially active
same,embryonic heart beat,[1]; chick embryo,continued to beat vigorously
same,hemorrhage,[1]; chick embryo,No hemorrhage was seen
same,hemolysis,"[1]; chick embryo, microscopic",absence of hemolysis
same,body weight and hematologic parameters,B16 melanoma [2]; B16-bearing C57B mice,no significant depression
same,suppression of B16 tumor volume,"B16 melanoma [2]; intraperitoneal, FIG. 4B",dose-dependent suppression of tumor volume
same,suppression of B16 tumor volume,"B16 melanoma [2]; oral, FIG. 4C",dose-dependent suppression of tumor volume
same,suppression of B16 tumor volume,"B16 melanoma [2]; subcutaneous, FIG. 4A",dose-dependent suppression of tumor volume
same,inhibition of NHE3 (Km and Vmax),"rabbit NHE3; FIG. 1A, 1B",inhibited NHE3 with respect to proton concentration at both Km and Vmax levels
same,resting internal pH,"rabbit NHE3; not acid-preloaded, FIG. 1B",the resting pH of these cells was also inhibited
same,inhibition of neutrophil adherence,[3],no inhibition
same,positive (fraction printed under Percentage positive),"[4]; 13-day embryo, 5.0 μg applied",0/26
same,anti-angiogenic activity in CAM,[4]; in words,"potent but specific inhibitory activity, equal in potency to the most active compounds described to date in the literature"
same,inhibitory effect on 13-day chick,"[4]; ten times 0.65 μg, 13-day old chick",no inhibitory effect
same,suppression of growth of human coronary artery smooth muscle,[5],suppress in vitro the growth of human coronary artery smooth muscle
same,death / lethality time,Xenopus tadpoles,≤ 2 h
same,observed response in tadpole,Xenopus tadpoles; stage 59-60 Xenopus,blood flow through the capillaries of the tail shut down; also recorded: unaltered blood flow through the fine capillaries of the hands and feet; also recorded: common vascular occlusive effect; also recorded: Vascular occlusion in fine capillaries of tail. No effect on vascular flow through hands or feet
same,inhibitory activity against rabbit NHE1,rabbit NHE1,no inhibitory activity
same,suppression of melanoma 1205Lu growth,"melanoma 1205Lu; 10, 20, 40 mg/kg/d, FIG. 5",suppress the growth of melanoma 1205Lu in RAG-1 mice in a dose-dependent fashion
same,reversibility after cessation of treatment,melanoma 1205Lu; RAG-1 mice,reversible
same,inhibitory activity against human NHE1,human NHE1,no inhibitory activity
same,antibiotic activity,[6],"broad-spectrum antibiotic, killing bacteria, fungi and protozoa"
same,"inhibition of blast transformation, in words",human T-cells,Some effect
same,effect of single agent versus combination,B16 melanoma [7],Neither administration of squalamine at 15 mg/kg/day nor compound 1436 alone in a tolerable schedule could achieve this effect
same,cytostatic activity against B16 in culture,B16,minimal cytostatic activity
